# Data from patent publication EP4803080A1, “METHOD FOR TREATING LEUKEMIA” (Shenzhen TargetRx Co., Ltd., priority 2023, dated 2025).
# “And” between values parts separate entries of the source, which are not always exact repeats. Equal entries are not always repeated. Where two headings read alike, the source gives them in different places.
# Key:
# Ba/F3 BCR-ABL1 T315M = assay: Cell growth inhibition activity test, single agents and combinations (CellTiter-Glo, Chou-Talalay); type: cell-based, mouse; settings: Mus musculus, BaF3, 72 h, single agent; T315M; 72 hours; read-out: IC50
# Procedure: (§1) A series of cell lines expressing BCR-ABL1 single mutations and compound mutations were constructed based on the Ba/F3 mouse pro-B cell line.
# (§2) This assay utilized the CellTiter-Glo (CTG) kit provided by Promega, which is a homogeneous method for cell viability detection, measuring the viability of cultured cells by quantifying ATP. Cells were seeded in 96-well plates and treated with different concentrations of test substances. […] At the end of the treatment, CTG reagent (CellTiter-Glo kit) was added according to the manufacturer's instructions to detect cell viability values. Plates were read on a microplate reader (Biotek cytation 3.0). IC50 values were calculated using GraphPad Prism 7.0 software.
# [1] = system: Ba/F3 BCR-ABL1 Y253H/T315I; assay: as above; type: cell-based, mouse; settings: BCR-ABL1 Y253H/T315I, read-out: IC50^I1
# Procedure: as §1, §2
# [2] = system: CML-AP with T315I mutation; assay: Phase I dose escalation and dose expansion clinical trial: efficacy in CML-AP subjects with T315I mutation; type: in vivo, humans
# From the text: This study is a single-arm, open-label, dose-escalation and dose-expansion Phase I clinical trial.
# The dose-escalation phase of this trial consists of about 8 dose groups, with oral administration under fasting conditions. Subjects in all dose groups will receive a single dose on Day 1 (D1), followed by pharmacokinetic (PK) and tolerability observations. […] After entering the multiple-dose period, subjects in the first dose group will initially receive twice-daily (BID) dosing (if PK data from the single-dose period are available, the dosing frequency during the multiple-dose period may be adjusted based on the PK data). The dosing frequency for subjects in subsequent dose groups after entering the multiple-dose period will be determined based on available PK and tolerability data. Throughout the trial, dosing frequency for all subjects may be adjusted based on continuously updated safety and PK data.
# A continuous reassessment method (CRM) based on the principle of the escalation with overdose control (EWOC) design will be used to recommend the next specific dose for each dose escalation, thereby completing dose escalation and determining the maximum tolerated dose (MTD). If both the investigator and sponsor believe that higher dose groups may offer better efficacy and manageable safety, the EWOC-based CRM method may be used to explore higher doses. All enrolled subjects will receive long-term treatment with the test drug and undergo evaluations for safety, tolerability, and preliminary efficacy.
# After obtaining certain research data from the dose-escalation phase, the investigator may comprehensively consider safety, efficacy, and other information to decide whether to enroll additional subjects at the MTD and/or lower dose levels to determine the recommended Phase II dose (RP2D). Two to four suitable dosing regimens will be selected for expansion in the target population (including subjects enrolled at the target dose levels during the escalation phase).
# A total of 8 dose groups were established: 10 mg bid, 20 mg bid, 40 mg bid, 80 mg bid, 40 mg qd, 80 mg qd, 160 mg qd, and 240 mg qd.
# The dose expansion phase was conducted in the following 3 cohorts: • Cohort 1: Subjects with chronic phase (CP) chronic myeloid leukemia (CML) who had previously received at least ≥2 different TKIs and were T315I-negative. A total of 3 dose groups were established: 40 mg qd, 80 mg qd, and 240 mg qd; • Cohort 2: Subjects with chronic phase (CP) chronic myeloid leukemia (CML) who have previously received ≥1 TKI and were T315I-positive. A total of 2 dose groups were established: 40 mg qd and 240 mg qd; • Cohort 3: Subjects with accelerated phase (AP) chronic myeloid leukemia (CML) who have previously received ≥1 TKI, regardless of T315I positivity. A total of 1 dose group was established: 240 mg qd.
# [3] = system: Ba/F3 BCR-ABL1 E255V/T315I; assay: Cell growth inhibition activity test, single agents and combinations (CellTiter-Glo, Chou-Talalay); type: cell-based; settings: Mus musculus, BaF3; single agent; E255V/T315I; 72 hours; read-out: IC50
# Procedure: as §1, §2
# [4] = Study of blood-brain ratio after single oral dose; type: in vivo; settings: male SD rats
# Procedure: A total of 15 male SD rats (3 per time point) were administered a single oral dose of Compound A via oral gavage at 50 mg/kg, with the vehicle being 0.5% sodium carboxymethyl cellulose (CMC-Na). The animals were not fasted. Whole blood, cerebrospinal fluid, and brain tissue were collected at 0.5, 2, 4, 8, and 24 hours post-dose. Whole blood samples (about 0.3 mL) were collected via puncture of the jugular venous sinus and transferred to dipotassium ethylenediaminetetraacetate (K2EDTA) anticoagulant tubes, mixed thoroughly, placed on wet ice, and centrifuged within 30 minutes for 5 minutes (6000 rpm, 4°C) to obtain plasma. Cerebrospinal fluid (about 0.10 mL) was collected via puncture of the cerebellomedullary cistern and placed in collection tubes. Brain tissue samples were rinsed with saline, dried with filter paper, blood vessels were removed, and the weight was weighed and recorded. Brain tissue was homogenized with 9 times its weight of homogenization buffer (30% MeOH, containing 0.2% FA/70% 10 mM PBS). All samples were stored in a freezer at -80°C or lower until LC-MS analysis. PK parameters were calculated using the non-compartmental model in WinNonlin and the compound concentrations in each matrix.
# [5] = CML-AP and T315I mutation, failed or intolerant to third-generation or later TKI therapy
# [6] = CML-AP and T315I mutation, failed or intolerant to third-generation or later TKI therapy, 12 evaluable
# [7] = CML-AP and T315I mutation, failed or intolerant to third-generation or later TKI therapy, Kaplan-Meier method
# [8] = CML-AP subjects with T315I mutation, as of June 2, 2024
# [9] = PO 50 mg/kg single dose, 0.5 hr, individual rat, 50 mg/kg
# [10] = PO 50 mg/kg single dose, 2 hr, individual rat, 50 mg/kg
# [11] = PO 50 mg/kg single dose, 4 hr, individual rat, 50 mg/kg
# [12] = PO 50 mg/kg single dose, 8 hr, individual rat, 50 mg/kg
# [13] = PO 50 mg/kg single dose, 24 hr, individual rat, 50 mg/kg
structure (smiles),measurement,setting,value
"O=C(Nc1ccc(OC(F)(F)Cl)cc1)c1cnc(N2CC[C@@H](F)C2)c(-c2cnccn2)c1 [Compound A, (R)-N-(4-(chlorodifluoromethoxy)phenyl)-6-(3-fluoropyrrolidin-1-yl)-5-(pyrazin-2-yl)nicotinamide]",IC50,Ba/F3 BCR-ABL1 T315M,> 1000 nM
same,IC50,[1]; IC50 of Compound A (I1) in Combination with olverembatinib (I2),65.3 nM
same,IC50,[1]; IC50 of Compound A (I1) in Combination with ponatinib (I2),166 nM
same,IC50,"[1]; Mus musculus, BaF3, 72 h, Monotherapy (Table 12)",12300 nM
same,median EFS,[2]; [5],5.55 months
same,median PFS,[2]; [5],not reached
same,median duration of MaHR response,[2]; [5],11.93 months
same,median time to achieve CCyR,[2]; [5],"4.19 (2.76, 5.62) months"
same,median time to achieve MCyR,[2]; [5],"2.69 (2.69, 2.76) months"
same,CCyR,[2]; [6],16.7%
same,MCyR,[2]; [6],25.0%
same,MMR,[2]; [6],8.3%
same,MaHR,"[2]; CML-AP and T315I mutation, failed or intolerant to third-generation or later TKI therapy, 13 evaluable",76.9%
same,12-month EFS rate,[2]; [7],18.0%
same,12-month PFS rate,[2]; [7],75.8%
same,18-month cumulative incidence rate of CCyR,[2]; [8],30%
same,18-month cumulative incidence rate of MCyR,[2]; [8],36%
same,18-month cumulative incidence rate of MMR,[2]; [8],15%
same,IC50,[3],151 nM
same,Brain Concentration (ng/g) Concentration,[4]; [9],302 ng/g and 381 ng/g
same,Brain/Blood Ratio Individual Value,[4]; [9],0.376 and 0.578
same,Brain Concentration (ng/g) Concentration,[4]; [10],1360 ng/g and 1070 ng/g
same,Brain/Blood Ratio Individual Value,[4]; [10],0.410 and 0.502
same,Brain Concentration (ng/g) Concentration,[4]; [11],1190 ng/g and 1310 ng/g
same,Brain/Blood Ratio Individual Value,[4]; [11],0.478 and 0.466
same,Brain Concentration (ng/g) Concentration,[4]; [12],452 ng/g and 1700 ng/g and 994 ng/g
same,Brain/Blood Ratio Individual Value,[4]; [12],0.447 and 0.462
same,Brain Concentration (ng/g) Concentration,[4]; [13],40.4 ng/g and 10.2 ng/g
same,Brain/Blood Ratio Individual Value,[4]; [13],0.488 and 0.990
same,concentration at 0.5 h,"[4]; male, SD, rat, brain, po, 50 mg/kg, PO 50 mg/kg single dose, 0.5 hr, individual rat, read-out: Brain Concentration (ng/g) Concentration",415 ng/g
same,concentration at 0.5 h,"[4]; male, SD, rat, brain, po, 50 mg/kg, PO 50 mg/kg single dose, 0.5 hr, mean of 3 rats, read-out: Brain Concentration (ng/g) Mean",366 ng/g
same,concentration at 2 h,"[4]; male, SD, rat, brain, po, 50 mg/kg, PO 50 mg/kg single dose, 2 hr, individual rat",961 ng/g
same,concentration at 4 h,"[4]; male, SD, rat, brain, po, 50 mg/kg, PO 50 mg/kg single dose, 4 hr, individual rat",880 ng/g
same,concentration at 24 h,"[4]; male, SD, rat, brain, po, 50 mg/kg, PO 50 mg/kg single dose, 24 hr, mean (one rat NA)",16.9 ng/g
same,Kp at 0.5 h,"[4]; male, SD, rat, brain/plasma, po, 50 mg/kg, PO 50 mg/kg single dose, 0.5 hr, individual rat",0.624
same,Kp at 2 h,"[4]; male, SD, rat, brain/plasma, po, 50 mg/kg, PO 50 mg/kg single dose, 2 hr, individual rat",0.439
same,Kp at 4 h,"[4]; male, SD, rat, brain/plasma, po, 50 mg/kg, PO 50 mg/kg single dose, 4 hr, individual rat",0.374
same,Kp at 8 h,"[4]; male, SD, rat, brain/plasma, po, 50 mg/kg, PO 50 mg/kg single dose, 8 hr, individual rat",0.511
same,Kp,"[4]; male, SD, rat, brain/plasma, po, 50 mg/kg, single oral dose 50 mg/kg, 0.5 to 24 hours, read-out: brain-to-plasma concentration ratio",0.44 to 0.74
same,Cmax,"[4]; rat, brain, single oral dose 50 mg/kg",1130 ng/g
same,AUC0-last in the brain,[4]; single oral dose 50 mg/kg,16346 ng·h/g
